{"source": "ChEMBL document CHEMBL1201862", "about": "“PubChem BioAssay data set” (2004)", "key": {"[1]": {"tested_on": "Danio rerio", "assay": "In Vivo Angiogenesis Dose-Response Confirmation. [Related pubchem assays: 732 (Assay preceding this confirmatory assay.)]", "type": "functional, organism-based"}, "[2]": {"assay": "Luminescence Cell-Based Dose Response to Identify Activators of Luciferase Translation or Activity in H4-C Neuroglioblastoma Cells. [Related pubchem assays: 1829 (Project Summary), 1814 (Primary HTS)]", "type": "functional"}, "[3]": {"assay": "Luminescence Cell-Based Dose Confirmation to Identify Activators of 5'UTR Stem-Loop Driven Alpha-Synuclein mRNA Translation in H4 Neuroglioblastoma Cells. [Related pubchem assays: 1829 (Project Summary), 1814 (Primary HTS)]", "type": "functional"}, "[4]": {"assay": "Luminescence Cell-Based Dose Response to Identify Activators of 5'UTR Stem-Loop Driven Prion Protein mRNA Translation in H4-C Neuroglioblastoma Cells. [Related pubchem assays: 1829 (Project Summary), 1814 (Primary HTS)]", "type": "functional"}, "[5]": {"assay": "Luminescence Cell-Based Dose Confirmation HTS to Identify Activators of 5'UTR Stem-Loop Driven Alpha-Synuclein mRNA Translation in H4 Neuroglioblastoma Cells. [Related pubchem assays: 1829 (Project Summary), 1814 (Primary HTS)]", "type": "functional"}, "[6]": {"tested_on": "H4", "assay": "Luminescence Cell-Based Dose Response HTS to Identify Activators of 5'UTR Stem-Loop Driven Prion Protein mRNA Translation in H4 Neuroglioblastoma Cells. [Related pubchem assays: 1829 (Project Summary), 1814 (Primary HTS)]", "type": "functional", "conditions": "Homo sapiens"}, "[7]": {"assay": "Luminescence Cell-Based Dose Response HTS to Identify Activators of Luciferase Translation or Activity in H4 […] Cells. [Related pubchem assays: 1829 (Project Summary), 1814 (Primary HTS)]", "type": "functional"}, "[8]": {"tested_on": "Streptococcus", "assay": "Group A Streptococcus viability loss, dose response, counter-screen for streptokinase expression inhibitor project, luminescence, BacTiterGlo (AID 1915);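 further: potency for reduction of bacterial viability or growth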", "type": "functional, organism-based"}, "[9]": {"target": "T1, Streptokinase A (Streptococcus pyogenes serotype M1, UniProt P10520)", "T1 sequence (P10520 whole entry)": "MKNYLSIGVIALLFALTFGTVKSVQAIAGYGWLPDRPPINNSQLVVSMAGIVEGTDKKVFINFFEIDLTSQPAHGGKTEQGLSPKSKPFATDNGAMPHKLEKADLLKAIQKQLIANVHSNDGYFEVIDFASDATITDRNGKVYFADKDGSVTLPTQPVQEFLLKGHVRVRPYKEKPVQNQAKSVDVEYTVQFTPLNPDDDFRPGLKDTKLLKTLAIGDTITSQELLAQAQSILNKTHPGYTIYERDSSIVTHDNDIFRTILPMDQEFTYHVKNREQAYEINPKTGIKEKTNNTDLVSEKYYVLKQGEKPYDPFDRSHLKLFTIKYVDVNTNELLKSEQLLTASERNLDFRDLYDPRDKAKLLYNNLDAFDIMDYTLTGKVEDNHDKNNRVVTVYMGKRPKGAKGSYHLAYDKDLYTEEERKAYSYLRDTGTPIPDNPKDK", "assay": "S. pyogenes streptokinase expression inhibitors, potency, dose response, plasminogen activation absorbance, OD405 (AID 1914);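 further: secreted streptokinase activity via plasminogen activation per viability signal from cell pellet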", "type": "functional, Streptococcus pyogenes M1 GAS"}, "[10]": {"target": "T2, Photoreceptor-specific nuclear receptor (Homo sapiens, UniProt Q9Y5X4)", "T2 sequence (Q9Y5X4 whole entry)": "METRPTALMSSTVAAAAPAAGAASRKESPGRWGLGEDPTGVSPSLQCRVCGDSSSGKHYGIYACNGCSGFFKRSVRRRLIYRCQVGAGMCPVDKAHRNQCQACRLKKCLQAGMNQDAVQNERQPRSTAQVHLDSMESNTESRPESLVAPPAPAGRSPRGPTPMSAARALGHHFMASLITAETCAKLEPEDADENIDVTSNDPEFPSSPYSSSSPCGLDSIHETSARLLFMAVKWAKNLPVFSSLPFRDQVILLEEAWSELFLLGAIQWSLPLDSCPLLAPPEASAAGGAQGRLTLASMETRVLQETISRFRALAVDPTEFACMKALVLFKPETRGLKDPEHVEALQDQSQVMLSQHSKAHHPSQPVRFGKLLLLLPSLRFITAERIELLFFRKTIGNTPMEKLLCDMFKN", "type": "functional, cell-based"}, "[11]": {"target": "Peroxisome proliferator-activated receptor gamma/Nuclear receptor corepressor 2 (Homo sapiens, UniProt P37231+Q9Y618)", "assay": "Counterscreen for NR2E3 inverse agonists: TR-FRET-based biochemical high throughput dose response assay to identify inverse agonists of the interaction between peroxisome proliferator-activated receptor gamma (PPARg) and nuclear receptor co-repressor 2 (NCOR2).", "type": "functional"}, "[12]": {"target": "T3, Voltage-gated N-type calcium channel alpha-1B subunit/Amyloid beta A4 precursor protein-binding family A member 1 (Homo sapiens, UniProt Q00975+Q02410)", "T3 sequence (Q00975 whole entry)": "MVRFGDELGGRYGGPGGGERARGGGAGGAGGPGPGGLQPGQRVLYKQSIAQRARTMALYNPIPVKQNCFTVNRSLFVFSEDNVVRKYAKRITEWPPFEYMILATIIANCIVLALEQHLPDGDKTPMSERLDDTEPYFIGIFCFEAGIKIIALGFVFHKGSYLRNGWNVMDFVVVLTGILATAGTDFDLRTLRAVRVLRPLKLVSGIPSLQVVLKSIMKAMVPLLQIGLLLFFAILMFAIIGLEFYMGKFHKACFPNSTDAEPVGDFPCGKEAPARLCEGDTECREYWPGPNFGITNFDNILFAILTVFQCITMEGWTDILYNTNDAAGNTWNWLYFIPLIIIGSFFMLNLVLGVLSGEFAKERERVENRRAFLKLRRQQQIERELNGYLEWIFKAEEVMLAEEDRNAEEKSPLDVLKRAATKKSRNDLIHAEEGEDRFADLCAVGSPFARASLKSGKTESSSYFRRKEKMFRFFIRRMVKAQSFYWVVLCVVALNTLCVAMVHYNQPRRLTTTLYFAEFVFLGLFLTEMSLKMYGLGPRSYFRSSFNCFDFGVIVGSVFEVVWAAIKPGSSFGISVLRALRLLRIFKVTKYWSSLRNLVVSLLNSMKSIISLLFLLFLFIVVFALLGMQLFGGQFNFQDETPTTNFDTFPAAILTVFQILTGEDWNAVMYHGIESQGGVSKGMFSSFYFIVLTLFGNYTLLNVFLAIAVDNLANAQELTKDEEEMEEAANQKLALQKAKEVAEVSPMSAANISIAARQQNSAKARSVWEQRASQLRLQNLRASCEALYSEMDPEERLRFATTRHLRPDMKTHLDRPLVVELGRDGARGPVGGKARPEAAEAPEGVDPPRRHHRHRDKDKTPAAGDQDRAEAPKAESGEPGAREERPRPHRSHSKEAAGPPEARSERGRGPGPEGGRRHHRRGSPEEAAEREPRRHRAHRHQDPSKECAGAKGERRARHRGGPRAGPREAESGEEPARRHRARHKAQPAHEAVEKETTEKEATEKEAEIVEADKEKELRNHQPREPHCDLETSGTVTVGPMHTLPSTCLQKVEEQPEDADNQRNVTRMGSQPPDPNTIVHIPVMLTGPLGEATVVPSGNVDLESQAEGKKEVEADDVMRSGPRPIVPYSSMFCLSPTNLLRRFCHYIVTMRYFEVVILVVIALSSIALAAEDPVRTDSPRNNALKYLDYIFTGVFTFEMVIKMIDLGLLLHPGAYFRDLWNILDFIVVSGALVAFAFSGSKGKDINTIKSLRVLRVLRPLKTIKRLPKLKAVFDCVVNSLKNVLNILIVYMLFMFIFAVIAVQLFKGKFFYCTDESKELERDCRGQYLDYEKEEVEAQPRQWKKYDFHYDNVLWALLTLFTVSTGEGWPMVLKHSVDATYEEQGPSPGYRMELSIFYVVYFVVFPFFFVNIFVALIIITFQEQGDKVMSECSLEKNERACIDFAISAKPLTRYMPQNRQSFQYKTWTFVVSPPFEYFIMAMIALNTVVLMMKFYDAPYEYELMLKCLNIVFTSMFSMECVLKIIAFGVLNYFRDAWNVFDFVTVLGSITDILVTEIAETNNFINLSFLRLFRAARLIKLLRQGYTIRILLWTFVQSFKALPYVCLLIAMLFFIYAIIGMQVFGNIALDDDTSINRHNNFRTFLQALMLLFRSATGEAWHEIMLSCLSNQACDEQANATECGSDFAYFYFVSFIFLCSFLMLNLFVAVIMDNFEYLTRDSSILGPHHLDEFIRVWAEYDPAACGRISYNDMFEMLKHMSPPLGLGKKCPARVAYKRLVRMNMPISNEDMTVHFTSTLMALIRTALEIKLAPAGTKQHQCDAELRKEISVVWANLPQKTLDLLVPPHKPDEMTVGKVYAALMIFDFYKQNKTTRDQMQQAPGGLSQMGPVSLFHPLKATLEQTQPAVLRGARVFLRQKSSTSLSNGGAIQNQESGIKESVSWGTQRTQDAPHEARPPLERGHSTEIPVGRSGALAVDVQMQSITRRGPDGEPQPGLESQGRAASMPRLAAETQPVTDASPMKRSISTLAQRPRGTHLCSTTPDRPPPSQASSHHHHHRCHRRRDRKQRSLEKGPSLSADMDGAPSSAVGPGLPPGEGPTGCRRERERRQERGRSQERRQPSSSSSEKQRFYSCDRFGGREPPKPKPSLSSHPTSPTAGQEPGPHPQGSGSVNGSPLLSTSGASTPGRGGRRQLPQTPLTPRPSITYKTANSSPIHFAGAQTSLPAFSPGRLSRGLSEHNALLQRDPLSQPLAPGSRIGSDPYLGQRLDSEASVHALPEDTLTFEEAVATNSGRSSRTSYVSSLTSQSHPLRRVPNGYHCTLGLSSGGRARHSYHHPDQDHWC", "T3 sequence (Q02410 whole entry)": "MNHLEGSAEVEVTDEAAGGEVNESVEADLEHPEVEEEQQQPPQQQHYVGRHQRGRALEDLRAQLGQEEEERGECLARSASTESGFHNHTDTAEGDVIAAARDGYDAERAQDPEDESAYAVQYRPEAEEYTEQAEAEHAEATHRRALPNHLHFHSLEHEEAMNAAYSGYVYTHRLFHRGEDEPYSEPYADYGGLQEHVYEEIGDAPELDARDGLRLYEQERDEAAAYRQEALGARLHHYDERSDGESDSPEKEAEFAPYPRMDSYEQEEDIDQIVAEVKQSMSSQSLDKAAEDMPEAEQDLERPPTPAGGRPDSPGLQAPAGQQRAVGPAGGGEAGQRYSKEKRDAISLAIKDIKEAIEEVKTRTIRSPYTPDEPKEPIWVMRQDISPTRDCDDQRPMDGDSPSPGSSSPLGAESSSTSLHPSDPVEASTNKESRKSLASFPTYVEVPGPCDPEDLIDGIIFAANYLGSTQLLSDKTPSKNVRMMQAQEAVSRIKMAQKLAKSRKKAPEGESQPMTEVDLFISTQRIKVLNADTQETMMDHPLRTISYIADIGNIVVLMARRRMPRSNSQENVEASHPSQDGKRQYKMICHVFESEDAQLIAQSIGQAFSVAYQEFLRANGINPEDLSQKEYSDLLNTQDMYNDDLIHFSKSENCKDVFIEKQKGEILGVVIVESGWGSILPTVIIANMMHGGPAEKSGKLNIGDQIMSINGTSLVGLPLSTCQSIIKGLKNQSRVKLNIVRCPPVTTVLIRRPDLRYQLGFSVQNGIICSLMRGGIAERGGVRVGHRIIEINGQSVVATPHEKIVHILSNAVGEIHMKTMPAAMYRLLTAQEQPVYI", "type": "protein assay"}, "[13]": {"target": "T2, Photoreceptor-specific nuclear receptor", "assay": "NR2E3 inverse agonists, dose response, biochemical, TR-FRET (AID 463256)", "type": "functional"}, "[14]": {"tested_on": "Streptococcus sp. 'group A'", "assay": "growth inhibition of control SK(-) GAS strain, dose response, counter-screen for streptokinase expression inhibitor project, luminescence, kanamycin, BacTiterGlo, confirmation (AID 1900)", "type": "functional, organism-based"}, "[15]": {"target": "T3, Voltage-gated N-type calcium channel alpha-1B subunit/Amyloid beta A4 precursor protein-binding family A member 1", "type": "protein assay", "remark": "listed apart in the source"}, "[16]": {"target": "T4, Ubiquitin-conjugating enzyme E2 N (Homo sapiens, UniProt P61088)", "T4 sequence (P61088 whole entry)": "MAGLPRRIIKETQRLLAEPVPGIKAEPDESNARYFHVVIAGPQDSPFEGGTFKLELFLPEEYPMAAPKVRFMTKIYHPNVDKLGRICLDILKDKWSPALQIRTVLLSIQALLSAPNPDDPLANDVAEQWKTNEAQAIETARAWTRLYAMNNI", "type": "functional"}, "[17]": {"tested_on": "Vero", "assay": "host cell cytotoxicity of antiviral hits, dose response, cytotoxicity control for West Nile virus antiviral project, secondary assay (AID 1650)", "type": "functional", "conditions": "Chlorocebus sabaeus"}, "[18]": {"target": "T5, Small ubiquitin-related modifier 1 (Homo sapiens, UniProt P63165)", "T5 sequence (P63165 whole entry)": "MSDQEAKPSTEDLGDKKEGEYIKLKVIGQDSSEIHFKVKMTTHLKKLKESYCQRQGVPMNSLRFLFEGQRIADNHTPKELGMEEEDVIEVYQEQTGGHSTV", "assay": "inhibitors of SUMO1 partner interactions, dose response, biochemical, FRET (AID 624383)", "type": "functional", "conditions": "read-out: IC50_Mean"}, "[19]": {"target": "T5, Small ubiquitin-related modifier 1", "assay": "inhibitors of SUMO1 peptide binding, dose response, biochemical, fluorescence polarization, uHTS hits (AID 624382)", "type": "functional", "conditions": "read-out: IC50_Mean"}, "[20]": {"assay": "inhibitors of firefly luciferase expression or activity, dose response, H4 neuroglioma cells, luminescence (AID 1990)", "type": "functional, cell-based"}, "[21]": {"assay": "Luminescence Cell-Based Dose Response HTS to Identify Inhibitors of 5'UTR Stem-Loop Driven Prion Protein mRNA Translation in H4 Neuroglioblastoma Cells. [Related pubchem assays: 1827 (Project Summary), 1813 (Primary HTS)]", "type": "functional"}, "[22]": {"target": "Voltage-gated inwardly rectifying potassium channel KCNH2 (Homo sapiens, UniProt Q12809)", "assay": "hERG protection from proarrhythmic block, potency, dose response, cell-based, thallium flux (AID 2121)", "type": "ADME"}, "[23]": {"tested_on": "Vero", "assay": "Vero cell cytotoxicity, cytotoxicity control for flavivirus capping enzyme inhibitors (AID 588742)", "type": "functional", "conditions": "Chlorocebus sabaeus"}, "[24]": {"target": "Beta-galactosidase (Escherichia coli, UniProt Q8VNN2)", "assay": "beta-galactosidase enzyme inhibitors and activators, dose response, artefact control for CCR6 antagonist project, biochemical, E. coli enzyme, set 3 (AID 504712)", "type": "functional"}, "[25]": {"assay": "inhibitors of SNCA 5'UTR-driven reporter translation, confirmation, H4 neuroglioma cells, luminescence (AID 1988)", "type": "functional, cell-based"}, "[26]": {"assay": "NIH-3T3 fibroblast cytotoxicity, dose response, cytotoxicity control, cell-based, fluorescence, Alamar Blue, secondary assay (AID 2327);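 further: NIH-3T3 mouse fibroblasts cultured with fluconazole at 8 µg/mL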", "type": "functional"}, "[27]": {"assay": "C. albicans growth with fluconazole, confirmation, fluorescence, retest (AID 2467)", "type": "functional, cell-based"}, "[28]": {"assay": "microbe, parasite or virus in culture", "type": "functional", "conditions": "Mycobacterium tuberculosis"}, "[29]": {"target": "5-hydroxytryptamine receptor 1A (Homo sapiens, UniProt P08908)", "sequence (P08908 whole entry)": "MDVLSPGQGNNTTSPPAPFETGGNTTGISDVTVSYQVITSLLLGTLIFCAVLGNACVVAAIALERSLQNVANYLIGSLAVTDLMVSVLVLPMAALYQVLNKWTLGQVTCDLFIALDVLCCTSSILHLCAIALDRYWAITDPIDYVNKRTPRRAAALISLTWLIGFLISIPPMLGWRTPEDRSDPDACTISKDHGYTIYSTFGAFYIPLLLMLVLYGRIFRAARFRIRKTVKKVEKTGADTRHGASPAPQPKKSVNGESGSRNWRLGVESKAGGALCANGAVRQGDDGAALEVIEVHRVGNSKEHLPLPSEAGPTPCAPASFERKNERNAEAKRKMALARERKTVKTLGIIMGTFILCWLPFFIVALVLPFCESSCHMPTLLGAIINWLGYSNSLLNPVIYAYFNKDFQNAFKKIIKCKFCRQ", "type": "functional"}}, "note": "The source made the active and inactive calls.", "data": [{"smiles": "Cc1cccc2c1NC(=O)/C2=C1\\Nc2ccccc2\\C1=N/OCCN1CCNCC1", "values": [{"measurement": "IC50", "setting": "[1]", "value": "6.32 µM (active)"}]}, {"smiles": "COc1ccc(/C=C2\\SC(=O)N(CCNC(=O)Cn3cnnn3)C2=O)cc1", "values": [{"measurement": "EC50", "setting": "[2]", "value": "0.405 µM (active)"}, {"measurement": "EC50", "setting": "[3]", "value": "0.926 µM (active)"}, {"measurement": "EC50", "setting": "[4]", "value": "0.533 µM (active)"}, {"measurement": "EC50", "setting": "[5]", "value": "2.28 µM (active)"}, {"measurement": "EC50", "setting": "[6]", "value": "0.122 µM (active)"}, {"measurement": "EC50", "setting": "[7]", "value": "33.3 µM (active)"}]}, {"smiles": "Cc1ccnc(NC(=S)N2CCN(c3cccc(C(F)(F)F)c3)CC2)c1", "values": [{"measurement": "EC50", "setting": "[8]", "value": "22.4 µM (active)"}, {"measurement": "EC50", "setting": "[9]", "value": "> 150 µM (not active)"}, {"measurement": "IC50", "setting": "[10]", "value": "1.76 µM (active)"}, {"measurement": "IC50", "setting": "[11]", "value": "> 39.9 µM (not active)"}, {"measurement": "IC50", "setting": "[12]", "value": "11.6 µM (active)"}, {"measurement": "IC50", "setting": "[13]", "value": "> 39.9 µM (not active)"}, {"measurement": "EC50", "setting": "[14]", "value": "1.66 µM (active)"}, {"measurement": "IC50", "setting": "[15]", "value": "> 50 µM (inactive)"}]}, {"smiles": "CCCN(CCC)CCCNC(=O)c1cc2c(=O)n(CC)c3ccccc3c2s1", "values": [{"measurement": "IC50", "setting": "[16]", "value": "> 20 µM (inactive)"}, {"measurement": "CC50", "setting": "[17]", "value": "18.8 µM (active)"}]}, {"smiles": "Cc1nc2ccc3nc(NC(=O)c4ccco4)sc3c2s1", "values": [{"measurement": "IC50", "setting": "[11]", "value": "4.28 µM (active)"}, {"measurement": "IC50", "setting": "[18]", "value": "12.1 µM (active)"}, {"measurement": "IC50", "setting": "[13]", "value": "4.28 µM (active)"}, {"measurement": "IC50", "setting": "[19]", "value": "> 66.6 µM (inactive)"}]}, {"smiles": "CCc1ccc(/C=C/C(=O)c2cc(Br)ccc(=O)c2O)cc1", "values": [{"measurement": "EC50", "setting": "[20]", "value": "> 120 µM (not active)"}, {"measurement": "EC50", "setting": "[21]", "value": "15 µM (active)"}, {"measurement": "EC50", "setting": "[8]", "value": "2.6 µM (active)"}, {"measurement": "EC50", "setting": "[22]", "value": "1.15 µM (active)"}, {"measurement": "CC50", "setting": "[23]", "value": "13.5 µM (active)"}, {"measurement": "EC50", "setting": "[14]", "value": "1.8 µM (active)"}, {"measurement": "IC50", "setting": "[24]", "value": "> 66.6 µM (inactive)"}, {"measurement": "EC50", "setting": "[25]", "value": "15.5 µM (active)"}, {"measurement": "EC50", "setting": "[26]", "value": "15.5 µM (inconclusive)"}, {"measurement": "EC50", "setting": "[27]", "value": "1.52 µM (active)"}, {"measurement": "CC50", "setting": "[28]", "value": "11.5 µM (active)"}]}, {"smiles": "Cc1noc(C)c1COc1ccc(C(=O)OC(C)C(=O)Nc2ccc(N3CCOCC3)cc2)cc1", "note": "(stereo not given)", "values": [{"measurement": "EC50", "setting": "[29]", "value": "> 50 µM (not active)"}]}, {"smiles": "Cc1ccc2c(c1)/C(=C1/Nc3ccc(Br)cc3/C1=N\\O)C(=O)N2", "values": [{"measurement": "IC50", "setting": "[1]", "value": "2.5 µM (active)"}]}, {"smiles": "O=C(N/N=C/c1ccccc1F)c1csc2c1CCCC2", "values": [{"measurement": "EC50", "setting": "[2]", "value": "0.323 µM (active)"}, {"measurement": "EC50", "setting": "[3]", "value": "0.227 µM (active)"}, {"measurement": "EC50", "setting": "[4]", "value": "0.264 µM (active)"}, {"measurement": "EC50", "setting": "[5]", "value": "< 0.1 µM (active)"}, {"measurement": "EC50", "setting": "[7]", "value": "< 0.1 µM (inconclusive)"}]}, {"smiles": "CNCCc1c[nH]c2ccccc12", "values": [{"measurement": "EC50", "setting": "[29]", "value": "5.1 µM (active)"}]}]}
